Data taken from patent publication US20070254881A1, “Pyrazole Derivative” (DAIICHI PHARMACEUTICAL CO., LTD., priority 2004, published 2007).

What was measured:
Cyclooxygenase-1 (COX-1) = target: T1, Cyclooxygenase-1 (COX-1) (Ovis aries, UniProt P05979); assay: COX-1 inhibition, COX Inhibitor Screening Assay Kit (PGF2α production, ELISA); assay type: biochemical; conditions: compound 50 μM
T1 construct: purchased Cayman Chemical Company 560101
T1 sequence (P05979 25-600): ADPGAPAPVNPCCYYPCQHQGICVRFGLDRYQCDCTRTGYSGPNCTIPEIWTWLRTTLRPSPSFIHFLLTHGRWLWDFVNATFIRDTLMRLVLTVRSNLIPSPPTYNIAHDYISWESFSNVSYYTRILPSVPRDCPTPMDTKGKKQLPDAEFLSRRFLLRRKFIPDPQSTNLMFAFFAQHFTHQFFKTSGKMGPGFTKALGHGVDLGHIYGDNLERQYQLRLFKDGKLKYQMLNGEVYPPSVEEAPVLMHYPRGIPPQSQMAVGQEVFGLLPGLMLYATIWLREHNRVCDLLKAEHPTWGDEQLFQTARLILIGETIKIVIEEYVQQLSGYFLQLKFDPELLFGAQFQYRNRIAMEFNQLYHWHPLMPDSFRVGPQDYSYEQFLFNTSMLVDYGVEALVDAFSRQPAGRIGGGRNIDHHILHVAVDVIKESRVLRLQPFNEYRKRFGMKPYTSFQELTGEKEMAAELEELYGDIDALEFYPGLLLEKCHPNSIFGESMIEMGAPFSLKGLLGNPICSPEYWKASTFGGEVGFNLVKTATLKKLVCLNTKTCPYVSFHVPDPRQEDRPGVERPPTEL
Text: For the measurement of the inhibitory activity of the compounds obtained in the Examples against COX-1 and COX-2, a COX Inhibitor Screening Assay Kit manufactured by Cayman Chemical Company (Catalog Nos. 560101 and 560121) was used.
Before starting the measurement, a reaction buffer, heme, arachidonic acid, SnCl2, EIA buffer, a washing buffer, prostaglandin (PG)-screening EIA standard solution, PG-screening acetylcholinesterase (AchE), a tracer […], and PG-screening EIA antiserum were provided.
A reaction solution containing a compound of the Examples (50 μM) and COX-1, or a reaction solution containing a compound of the Examples (300 μM) and COX-2 was allowed to stand at 37° C. for 10 minutes, then 10 μl of arachidonic acid was added thereto, and the resultant mixture was allowed to stand at 37° C. for 2 minutes. After the reaction, 50 μl of 1 N hydrochloric acid was added to the reaction mixture to stop the reaction, and 100 μl of a SnCl2 solution was added thereto. The resultant mixture was allowed to stand at room temperature for 5 minutes.
50 μl of antiserum (rabbit anti-PGF2α antibody) was added to each well of a 96-well plate coated with mouse anti-rabbit IgG. Then, 50 μl of a solution prepared by diluting the reaction solution for PGF2α production to 2000-folds, and 50 μl of an AchE tracer were added sequentially to the wells, and the plate was kept at room temperature for 18 hours. Each well washed 5 times with the washing buffer to remove excessive AchE tracer, and then 200 μl of Ellman reagent was added to each well. The plate was kept in the dark room for 60 minutes, and then, absorbance at 405 nm was measured.
A standard curve was produced using a PG-screening EIA standard solution, and the amount of PGF2α production was determined from the absorbance obtained as described above. The COX-1 inhibition rate at 50 μM of the compound of the Examples, and the COX-2 inhibition rate at 300 μM of the compound of the Examples were calculated.

[1] = test system: collagen-induced platelet aggregation; assay: Platelet aggregation suppressing effect (collagen-induced aggregation in platelet rich plasma); assay type: cell-based; conditions: human PRP, 37° C., collagen as inducer, read-out: Inhibitory effect of collagen-induced platelet aggregation IC50
Description: Human blood was collected using 3.13% sodium citrate in a volume 1/10 of the blood volume, as an anticoagulant. The collected blood was centrifuged at 180 g for 10 minutes to separate platelet rich plasma (PRP) from the blood. After collecting the PRP fraction in the upper layer, the lower layer was further centrifuged at 1600 g for 10 minutes to fractionate platelet poor plasma (PPP) in the upper layer. One μl of a solution of a compound obtained in the Examples was added to 200 μl of PRP, and the mixture was allowed to stand at 37° C. for 2 minutes. Subsequently, 2 μl of collagen was added thereto, so as to induce platelet aggregation. The platelet aggregation rate was measured using PAM-12C(SSR Engineering, Inc.).

Structure (SMILES) | COX-1 inhibitory action at 50 μM (% inhibition) (Cyclooxygenase-1 (COX-1)) | IC50 [1]
COc1ccc(-n2nc(C(=O)N3CCOC[C@H]3C)cc2-c2ccccn2)nn1 [Example 107, (−)(3R)-4-[1-(6-Methoxypyridazin-3-yl)-5-(2-pyridyl)-1H-pyrazole-3-carbonyl]-3-methylmorpholine] | −3.9 % inhibition | 430 nM
COc1ccc(-n2nc(C(=O)N3CCC(OC)CC3)cc2-c2cscn2)nn1 [Example 132, 1-[1-(6-Methoxy-3-pyridazinyl)-5-(thiazol-4-yl)-1H-pyrazole-3-carbonyl]-4-methoxypiperidine] |  | 190 nM
COc1ccc(-n2nc(C(=O)N3CCCC(OC)C3)cc2-c2ccccn2)cn1 (stereo not shown) [Example 34, 1-[1-(6-Methoxy-3-pyridyl)-5-(2-pyridyl)-1H-pyrazole-3-carbonyl]-3-methoxypiperidine] | −18.4 % inhibition | 63 nM
COc1ccc(-n2nc(C(=O)N3CCN(C)C(=O)C3)cc2-c2ccn(C)n2)cn1 [Example 36, 1-[1-(6-Methoxy-3-pyridyl)-5 (1-methyl-1H-pyrazol-3-yl)-1H-pyrazole-3-carbonyl]-4-methyl-3-oxopiperazine] | 1.2 % inhibition | 370 nM
COc1ccc(-n2nc(C(=O)N3CCC(OC)CC3)cc2-c2ccccn2)cn1 [Example 20, 1-[1-(6-Methoxy-3-pyridyl)-5-(2-pyridyl)-1H-pyrazole-3-carbonyl]-4-methoxypiperidine] | −17.0 % inhibition | 120 nM
COc1ccc(-n2nc(C(=O)N3CCCC3C)cc2-c2ccccn2)nn1 (stereo not shown) [Example 27, 1-[1-(6-Methoxy-3-pyridazinyl)-5-(2-pyridyl)-1H-pyrazole-3-carbonyl]-2-methylpyrrolidine] | −10.2 % inhibition | 91 nM
COc1ccc(-n2nc(C(=O)N3CCOC[C@@H]3C)cc2-c2ccccn2)nn1 [Example 105, (+)(3S)-4-[1-(6-Methoxypyridazin-3-yl)-5-(2-pyridyl)-1H-pyrazole-3-carbonyl]-3-methylmorpholine] | −9.6 % inhibition | 440 nM
Cc1ccc(-c2cc(C(=O)N3CCC(F)(F)CC3)nn2-c2ccc(C)nn2)nc1 [Example 18, 1-[1-(6-Methyl-3-pyridazinyl)-5-(5-methyl-2-pyridyl)-1H-pyrazole-3-carbonyl]-4,4-difluoropiperidine] | −3.0 % inhibition | 200 nM
Cc1ccc(-n2nc(C(=O)N3CCOCC3)cc2-c2ccn(C)c2)cn1 [Example 16, 4-[1-(6-Methyl-3-pyridyl)-5-(1-methyl-1H-pyrrol-3-yl)-1H-pyrazole-3-carbonyl]morpholine] | −5.2 % inhibition | 120 nM
COc1ccc(-n2nc(C(=O)N3CCCCN3)cc2-c2ccccn2)nn1 [Example 5, 1-[1-(6-Methoxy-3-pyridazinyl)-5-(2-pyridyl)-1H-pyrazole-3-carbonyl]hexahydropyridazine] | −35.9 % inhibition | 210 nM
COc1ccc(-n2nc(C(=O)N3CCN(C)CC3)cc2-c2ccc[nH]2)nn1 [Example 12, 1-[1-(6-Methoxy-3-pyridazinyl)-5-(1H-pyrrol-2-yl)-1H-pyrazole-3-carbonyl]-4-methylpiperazine] | 25.9 % inhibition | 320 nM
COc1ccc(-n2nc(C(=O)N3CCC(OC)CC3)cc2-c2ccc[nH]2)nn1 [Example 14, 1-[1-(6-Methoxy-3-pyridazinyl)-5-(1H-pyrrol-2-yl)-1H-pyrazole-3-carbonyl]-4-methoxypiperidine] | 39.3 % inhibition | 120 nM
COc1ccc(-n2nc(C(=O)N3CCOCC3)cc2-c2cc[nH]n2)cn1 [Example 33, 4-[1-(6-Methoxy-3-pyridyl)-5-(1H-pyrazol-3-yl)-1H-pyrazole-3-carbonyl]morpholine] | −9.5 % inhibition | 97 nM
COc1ccc(-c2cc(C(=O)N3CCOCC3)nn2-c2ccc(C)nc2)nc1 [Example 1, 4-[5-(5-Methoxy-2-pyridyl)-1-(6-methyl-3-pyridyl)-1H-pyrazole-3-carbonyl]morpholine] | −13.3 % inhibition | 210 nM
COc1ccc(-n2nc(C(=O)N3CCOCC3)cc2-c2cc[nH]c2)nn1 [Example 41, 1-[1-(6-Methoxy-3-pyridazinyl)-5-(1H-pyrrol-3-yl)-1H-pyrazole-3-carbonyl]morpholine] | −21.3 % inhibition | 170 nM
COc1ccc(-n2nc(C(=O)N3CCCOCC3)cc2-c2cnn(C)c2)cn1 [Example 136, 4-[1-(6-Methoxy-3-pyridyl)-5-(1-methyl-1H-pyrazol-4-yl)-1H-pyrazole-3-carbonyl]-1,4-oxazepane] |  | 360 nM
COc1ccc(-n2nc(C(=O)N3CCCOCC3)cc2-c2cscn2)cn1 [Example 139, 4-[1-(6-Methoxy-3-pyridyl)-5-(thiazol-4-yl)-1H-pyrazole-3-carbonyl]-1,4-oxazepane] |  | 41 nM
COc1ccc(-n2nc(C(=O)N3CCN(C)C(=O)C3)cc2-n2cccc2)cn1 [Example 10, 1-[1-(6-Methoxy-3-pyridyl)-5-(1H-pyrrol-1-yl)-1H-pyrazole-3-carbonyl]-4-methyl-3-oxopiperazine] | 54.1 % inhibition | 190 nM
COc1ccc(-n2nc(C(=O)N3CCCCN3)cc2-c2cnn(C)c2)cn1 [Example 134, 1-[1-(6-Methoxy-3-pyridyl)-5 (1-methyl-1H-pyrazol-4-yl)-1H-pyrazole-3-carbonyl]hexahydropyridazine] |  | 40 nM
COc1ccc(-n2nc(C(=O)N3CCCCC3C(N)=O)cc2-c2cscn2)cn1 (stereo not shown) [Example 129, 1-[1-(6-Methoxy-3-pyridyl)-5-(thiazol-4-yl)-1H-pyrazole-3-carbonyl]-2-carbamoylpiperidine] |  | 260 nM
COc1ccc(-n2nc(C(=O)N3CCC(OC)CC3)cc2-c2cscn2)cn1 [Example 128, 1-[1-(6-Methoxy-3-pyridyl)-5-(thiazol-4-yl)-1H-pyrazole-3-carbonyl]-4-methoxypiperidine] |  | 100 nM
COc1ccc(-n2nc(C(=O)N3CCN(C)CC3)cc2-c2cscn2)nn1 [Example 131, 1-[1-(6-Methoxy-3-pyridazinyl)-5-(thiazol-4-yl)-1H-pyrazole-3-carbonyl]-4-methylpiperazine] |  | 320 nM
COc1ccc(-n2nc(C(=O)N3CCC(F)(F)CC3)cc2-c2cscn2)nn1 [Example 133, 1-[1-(6-Methoxy-3-pyridazinyl)-5-(thiazol-4-yl)-1H-pyrazole-3-carbonyl]-4,4-difluoropiperidine] |  | 80 nM
COc1ccc(-n2nc(C(=O)N3CCCOCC3)cc2-c2cscn2)nn1 [Example 137, 4-[1-(6-Methoxy-3-pyridazinyl)-5-(thiazol-4-yl)-1H-pyrazole-3-carbonyl]-1,4-oxazepane] |  | 80 nM
COc1ccc(-n2nc(C(=O)N3CCCCN3)cc2-c2cscn2)cn1 [Example 138, 1-[1-(6-Methoxy-3-pyridyl)-5-(thiazol-4-yl)-1H-pyrazole-3-carbonyl]hexahydropyridazine] |  | 41 nM
